Where two headings read alike, the source gives them in different places.
Experiments:
[1] = Pharmacokinetics of BrEA after subcutaneous dose in rats; type: in vivo; settings: for half-life: rat, plasma, sc, biphasic elimination
Experimental: BrEA was administered subcutaneously to rats using the formulation of example 1. Approximately 90% of the drug left the injection site within 24 hours of administration, and reached a maximum concentration in the plasma of about 0.2% of the injected dose at one hour post administration. Elimination from the plasma was biphasic, with half-lives of about 12 and 72 hours respectively. […] A study is also performed in Rhesus Monkeys with the example 1 formulation to determine plasma pharmacokinetics.

[2] = Plasma pharmacokinetics of 14C BrEA in Rhesus Monkeys; type: in vivo; settings: 1 mg/kg s.c. 14C BrEA
Experimental: A pharmacokinetic analysis of ^14C BrEA in plasma was conducted in two female Rhesus Monkeys. Trace labeled compound (16α-bromo-3-beta-hydroxy-5α-[4-^14C]-androstan-17-one [50 mCi/mmole]) was used at a dose of 1 mg/kg as a subcutaneous injection in the scapular region using an injection volume of 1 mL/kg. The BrEA was formulated in 25% polyethylene glycol 300, 12.5% absolute ethanol, 5% benzyl benzoate, and qs with propylene glycol. 40 μCi were injected per animal. Blood samples were taken at 0, 0.5, 1, 2, 4, 8, and 24 hours for determination of ^14C activity. The radioactivity in the plasma rose to near peak concentration in 8 hours and remained at approximately the same level through the end of the study at 24 hours.

[3] = system: P. berghei; assay: Survival of P. berghei infected mice given BrEA I.V. or S.C.; type: in vivo; settings: cyclodextrin formulation, all control animals dead by day 10
Experimental: In a similar protocol, mice are inoculated with a solution containing 1×10^7 erythrocytes/mL by I.V. injection. Two hours later give drug is delivered by I.V. injection. BrEA or another formula 1 compound is given (0.2 mL I.V. or S.C.) once a day for 4 days. Tail snips are used to obtain blood after the study. Mice infected with P. berghei were used to obtain infected cells. Parasites are harvested from cardiac mouse blood, and uninfected mice are infected using 0.2 ml of blood with 14% parasitaemia per mouse I.V. Two hours later, the first dose of BrEA (100 mg/kg I.V. or S.C.) is delivered to the infected animals. The BrEA formulation was a sterile solution containing 15 mg/mL of BrEA in 45% hydroxypropyl-β-cyclodextrin and 0.9% saline. At 1, 2, 3 and 4 days after the infection of the animals, BrEA (100 mg/kg I.V. or S.C.) is delivered to the infected animals.

[4] = system: HIV; assay: HIV RNA level by PCR in HIV/HCV infected patient dosed I.V. with BrEA; type: in vivo; settings: predosing 5.2
Experimental: A patient infected with HIV and HCV was dosed I.V. with BrEA for 3 consecutive days using a formulation that contained 20 mg/mL BrEA in 45% w/v hydroxypropyl-β-cyclodextrin and saline. Four mL of the formulation (80 mg BrEA) was administered to the patient every 4 hours during the 3 day treatment period. The patient's predosing HCV level was 6.5 Log10 as measured by PCR and the HCV level was 6.2 Log10 on the first day of dosing, 5.5 Log10 on the 3rd day of dosing and 4.9 Log10 three days after the last dose was administered. HIV RNA levels as measured by PCR was 5.2 Log10 (predosing), 5.8 Log10 (first day), 5.9 Log10 (third day) and 5.4 Log10 (day 6). The NK cell counts (cells/mm^3) were 28, 41 and 38 at predosing, day 0 and day 3.

[5] = system: CD4+ memory T cell 1 (MT1) and memory T cell 2 (MT2) cells; assay: MT1:MT2 memory T cell ratio in patients after 5 day i.m. BrEA; type: in vivo, human
Experimental: In a separate clinical trial using 100 mg of BrEA delivered to patients once per day for 5 consecutive days by intramuscular injection, several patients were evaluated for changes in the ratio of CD4^+ memory T cell 1 cells (intracellular IFNγ^+ CD45RA^− CD62L^− CD11a^bright) or MT1 cells to memory T cell 2 cells (intracellular IL-4^+ CD45RA^− CD62L^+ CD11a^dim) or MT2 cells. MT1 cells mediate or facilitate Th1 immune responses and MT2 cells mediate or facilitate Th2 immune responses. An increase in the MT1:MT2 ratio indicates an enhanced Th1 immune response or immune status. See, e.g., D. K. Mitra et al., International Immunology 1999 11:1801-1810. […] The maximum observed increase was about 700% in one patient at 10 days after the last dose of BrEA was administered. The increase usually persisted for more than 10 days after the last dose of BrEA was administered.

[6] = system: blood cell counts; assay: Enhancement of hemopoiesis in a human HIV patient; type: in vivo
Experimental: A human patient infected with the HIV virus was treated with 16α-bromoepiandrosterone (“BrEA”), using a physiological saline formulation containing 10 mg/mL of BrEA in solution, 36% w/v hydroxypropyl-β-cyclodextrin and 20 mg/mL of micronized BrEA in suspension. The patient received two courses of treatment. The first course consisted of subcutaneous injection once per day of 80 mg of BrEA for 10 days. The second course of treatment commenced 74 days later and used the same formulation, except that deuterium oxide replaced water in the formulation. The second treatment course consisted of subcutaneous injection once per day of 80 mg of BrEA for 15 days. The patient's blood parameters were obtained at the start and at the end of each course of treatment.

With C[C@]12CC[C@H](O)C[C@@H]1CC[C@@H]1[C@@H]2CC[C@]2(C)C(=O)[C@H](Br)C[C@@H]12 [BrEA, 16α-bromo-3β-hydroxy-5α-androstane-17-one] the half-life ([1]; rats s.c., read-out: plasma elimination half-life, first phase (converted)) was roughly 12 h, the half-life ([1]; rats s.c., read-out: plasma elimination half-life, second phase (converted)) was roughly 72 h and the accumulation in organs ([1]; rats s.c.) was “did not accumulate to a significant extent in any major organ”. The route of excretion ([1]; rats s.c.) was “excreted primarily in the feces”, the “time of maximum concentration in the plasma” value ([1]; rats s.c.) was “one” and the “maximum concentration in the plasma” value ([1]; rats s.c., at one hour post administration) was “about 0.2 % of the injected dose”. For the same compound, the “drug left the injection site” value ([1]; rats, subcutaneous, formulation of example 1, within 24 hours) was “Approximately 90%”, the “time for plasma radioactivity to rise to near peak concentration” value [2] was 8 h and the “survival of infected mice” value ([3]; BrEA 100 mg/kg I.V. daily) was “No deaths occurred in the group receiving I.V. BrEA at day 30”. The “survival of infected mice” value ([3]; BrEA 100 mg/kg S.C. daily) was “dead by Day 11”, the “HIV RNA levels by PCR” value ([4]; day 6) was 5.4 Log10 and the “HIV RNA levels by PCR” value ([4]; first day) was 5.8 Log10. The “HIV RNA levels by PCR” value ([4]; third day) was 5.9 Log10, the “tested patients showing a transient increase in the MT1:MT2 ratio” value ([5]; 100 mg i.m. once per day for 5 consecutive days) was 7/7 and the “maximum observed increase in the MT1:MT2 ratio” value ([5]; one patient, 10 days after the last dose) was “about 700%”. For the same compound, the WBC ([6]; 1st Course end (80 mg s.c. daily 10 days), start 2.38) was 2.47e+09 L⁻¹, the basophils ([6]; 1st Course end, start 0.02) was 1e+07 L⁻¹ and the monocytes ([6]; 1st Course end, start 0.35) was 3e+08 L⁻¹. The neutrophils ([6]; 1st Course end, start 0.92) was 8e+08 L⁻¹, the “CD4+ T cells” value ([6]; 1st Course end, start 93) was 116 mm^−3 and the “CD16+/56+ NK cells” value ([6]; 1st Course end, start 186) was 348 mm^−3. The T suppressor cells ([6]; 1st Course end, start 344) was 452 mm^−3, the WBC ([6]; 2nd Course end (80 mg s.c. daily 15 days), start 3.57) was 5.66e+09 L⁻¹ and the basophils ([6]; 2nd Course end, start 0.01) was 6e+07 L⁻¹. For the same compound, the monocytes ([6]; 2nd Course end, start 0.34) was 5.4e+08 L⁻¹, the neutrophils ([6]; 2nd Course end, start 2.02) was 3.6e+09 L⁻¹ and the “CD4+ T cells” value ([6]; 2nd Course end, start 113) was 125 mm^−3. The “CD16+/56+ NK cells” value ([6]; 2nd Course end, start 144) was 425 mm^−3 and the T suppressor cells ([6]; 2nd Course end, start 351) was 513 mm^−3.

From US20070275936A1, “Formulations and Treatment Methods” (priority 1998, published 2007)
